{
  "source": "ChEMBL document CHEMBL6115017",
  "about": "“Discovery of DFV890, a Potent Sulfonimidamide-Containing NLRP3 Inflammasome Inhibitor” (J Med Chem, 2025)",
  "key": {"[1]": {"experiment": "Fraction unbound in Sprague-Dawley rat plasma", "type": "ADME, cell-free"}, "cells": {"experiment": "cells", "conditions": "Macaca fascicularis, PBMC", "description": "Antagonist activity at NLRP3 inflammasome activation in Cynomolgus monkey PBMC assessed as inhibition of LPS-stimulated IL-1beta release pretreated for 1 hr followed by induced with LPS measured after 18 hrs by HTRF analysis"}, "Cytochrome P450 2C19 [2]": {"target": "T1, Cytochrome P450 2C19 (Homo sapiens, UniProt P33261)", "T1 sequence (P33261 whole entry)": "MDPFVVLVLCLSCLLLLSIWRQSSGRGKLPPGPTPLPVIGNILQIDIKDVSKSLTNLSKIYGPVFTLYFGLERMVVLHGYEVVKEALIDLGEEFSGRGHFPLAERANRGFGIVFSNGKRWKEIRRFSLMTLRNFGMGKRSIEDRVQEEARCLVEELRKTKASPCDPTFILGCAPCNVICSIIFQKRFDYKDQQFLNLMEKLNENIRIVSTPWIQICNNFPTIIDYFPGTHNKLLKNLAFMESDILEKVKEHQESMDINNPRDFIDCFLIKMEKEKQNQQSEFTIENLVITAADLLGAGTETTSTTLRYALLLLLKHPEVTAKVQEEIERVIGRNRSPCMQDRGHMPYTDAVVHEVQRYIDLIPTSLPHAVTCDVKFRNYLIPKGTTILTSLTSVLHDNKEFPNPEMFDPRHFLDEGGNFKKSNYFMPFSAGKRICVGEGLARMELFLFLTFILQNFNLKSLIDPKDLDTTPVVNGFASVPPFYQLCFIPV", "experiment": "Inhibition of CYP2C19 (unknown origin) by time dependent inhibition assay", "type": "ADME"}, "[3]": {"experiment": "AUC (infinity) in C57 BL6 mouse at 10 mg/kg, po by LC-MS analysis", "type": "ADME, organism-based", "conditions": "in vivo"}, "[4]": {"experiment": "Metabolic stability in dog hepatocytes assessed as intrinsic clearance measured per 10^6 cells", "type": "ADME, cell-based, Canis lupus familiaris, Hepatocyte", "conditions": "read-out: CLH"}, "[5]": {"experiment": "AUC (infinity) in Sprague-Dawley rat at 5 mg/kg, po by LC-MS analysis", "type": "ADME, organism-based", "conditions": "in vivo"}, "[6]": {"experiment": "Thermodynamic solubility in PBS at pH 5", "type": "physicochemical", "conditions": "read-out: Therm_solubility"}, "[7]": {"experiment": "Volume of distribution at steady state in Cynomolgus monkey at 5 mg/kg, po and 2 mg/kg, iv by LC-MS analysis", "type": "ADME, organism-based, Macaca fascicularis", "conditions": "in vivo"}, "Mus musculus [8]": {"tested_on": "Mus musculus", "experiment": "In vivo inhibition of NLRP3 dependent cytokine production in po dosed LPS-challenged C57BL/6 mouse model assessed as inhibition of LPS-induced TNFalpha production in blood pretreated for 1 hr followed by induced with LPS measured after 5 hrs by cytokine bead assay", "type": "functional, organism-based", "conditions": "time 6.0 hrs"}, "Cytochrome P450 2B6": {"target": "T2, Cytochrome P450 2B6 (Homo sapiens, UniProt P20813)", "T2 sequence (P20813 whole entry)": "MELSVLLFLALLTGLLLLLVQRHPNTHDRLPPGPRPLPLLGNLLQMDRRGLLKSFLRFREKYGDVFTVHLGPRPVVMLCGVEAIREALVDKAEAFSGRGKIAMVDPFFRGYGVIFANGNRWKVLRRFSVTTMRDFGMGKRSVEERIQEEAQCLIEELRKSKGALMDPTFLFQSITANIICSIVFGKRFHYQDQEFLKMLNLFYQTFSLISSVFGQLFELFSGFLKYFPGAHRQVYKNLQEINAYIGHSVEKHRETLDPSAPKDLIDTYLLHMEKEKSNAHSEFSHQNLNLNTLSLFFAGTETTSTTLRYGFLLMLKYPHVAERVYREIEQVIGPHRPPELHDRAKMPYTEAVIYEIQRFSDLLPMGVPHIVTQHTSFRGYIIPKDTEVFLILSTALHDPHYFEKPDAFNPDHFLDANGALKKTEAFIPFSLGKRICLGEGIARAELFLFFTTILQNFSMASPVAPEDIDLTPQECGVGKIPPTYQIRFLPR", "experiment": "Inhibition of CYP2B6 (unknown origin)", "type": "ADME"}, "Cytochrome P450 2D6 [9]": {"target": "T3, Cytochrome P450 2D6 (Homo sapiens, UniProt P10635)", "T3 sequence (P10635 whole entry)": "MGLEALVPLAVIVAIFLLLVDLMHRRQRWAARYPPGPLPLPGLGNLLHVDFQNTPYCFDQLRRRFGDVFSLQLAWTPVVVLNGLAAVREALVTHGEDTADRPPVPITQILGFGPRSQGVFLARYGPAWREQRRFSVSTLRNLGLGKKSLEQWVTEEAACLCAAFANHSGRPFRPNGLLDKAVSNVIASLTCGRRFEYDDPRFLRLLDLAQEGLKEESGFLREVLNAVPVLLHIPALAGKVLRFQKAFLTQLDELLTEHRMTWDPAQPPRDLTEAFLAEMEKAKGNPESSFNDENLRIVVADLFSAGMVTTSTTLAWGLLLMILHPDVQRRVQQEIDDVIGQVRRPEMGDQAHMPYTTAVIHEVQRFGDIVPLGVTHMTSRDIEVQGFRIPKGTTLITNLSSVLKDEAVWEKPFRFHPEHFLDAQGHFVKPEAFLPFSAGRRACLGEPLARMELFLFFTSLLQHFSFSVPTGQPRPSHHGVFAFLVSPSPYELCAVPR", "experiment": "Inhibition of CYP2D6 (unknown origin) by time dependent inhibition assay", "type": "ADME"}, "Cytochrome P450 2C9": {"target": "Cytochrome P450 2C9 (Homo sapiens, UniProt P11712)", "sequence (P11712 whole entry)": "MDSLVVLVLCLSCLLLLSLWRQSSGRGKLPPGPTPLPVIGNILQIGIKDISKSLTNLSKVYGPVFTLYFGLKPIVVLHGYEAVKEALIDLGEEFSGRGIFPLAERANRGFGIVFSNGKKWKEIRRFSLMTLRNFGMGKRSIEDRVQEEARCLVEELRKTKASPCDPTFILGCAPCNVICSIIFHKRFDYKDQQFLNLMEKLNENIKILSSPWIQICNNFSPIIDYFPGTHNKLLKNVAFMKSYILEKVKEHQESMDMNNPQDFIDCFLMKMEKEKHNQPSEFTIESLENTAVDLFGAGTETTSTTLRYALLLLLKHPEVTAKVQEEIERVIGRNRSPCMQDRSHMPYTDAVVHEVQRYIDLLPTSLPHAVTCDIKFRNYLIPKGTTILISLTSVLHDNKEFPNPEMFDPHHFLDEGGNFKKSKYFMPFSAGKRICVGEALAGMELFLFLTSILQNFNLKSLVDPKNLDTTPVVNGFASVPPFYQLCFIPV", "experiment": "Inhibition of CYP2C9 (unknown origin)", "type": "ADME"}, "Mus musculus [10]": {"tested_on": "Mus musculus", "experiment": "In vivo anti-inflammatory activity against MSU crystal-induced gouty arthritis Balb/c mouse model assessed as reduction in neutrophil recruitment in at 0.1 to 50 mg/kg, po single dose", "type": "functional, organism-based", "conditions": "dose 0.1-50 mg/kg"}, "[11]": {"experiment": "Lipophilicity, log D of compound in potassium phosphate buffer/octanol at pH 7.4", "type": "physicochemical"}, "[12]": {"experiment": "Oral bioavailability in Cynomolgus monkey at 5 mg/kg administrated through oral gavage and 2 mg/kg, iv by LC-MS analysis", "type": "ADME, organism-based, Macaca fascicularis", "conditions": "in vivo"}, "[13]": {"experiment": "Fraction unbound in Beagle dog […] plasma", "type": "ADME, cell-free, Canis lupus familiaris"}, "Cytochrome P450 2D6 [14]": {"target": "T3, Cytochrome P450 2D6", "experiment": "Inhibition of CYP2D6 (unknown origin)", "type": "ADME"}, "[15]": {"experiment": "Mutagenicity in Salmonella typhimurium by AMES test", "type": "toxicity", "conditions": "salmonella enterica subsp. enterica serovar typhimurium"}, "Macrophage [16]": {"tested_on": "Macrophage", "experiment": "Inhibition of pyrin inflammasome activation in immortalized NLRP3-KO mouse macrophages assessed as inhibition of TcdB-induced IL-1beta release pretreated for 1 hr followed by induced with TcdB measured after 6 hrs by HTRF analysis", "type": "cell-based", "conditions": "time 7.0 hrs"}, "[17]": {"experiment": "Thermodynamic solubility in PBS at pH 7.4", "type": "physicochemical", "conditions": "read-out: Therm_solubility"}, "Macrophage [18]": {"tested_on": "Macrophage", "experiment": "Inhibition of AIM2 inflammasome activation in mouse iMac assessed as inhibition of poly(dA:dT) induced IL-1beta release pretreated for 1 hr followed by induced with poly(dA:dT) measured after 2 hr incubation by HTRF analysis", "type": "cell-based", "conditions": "time 3.0 hrs"}, "Mus musculus [19]": {"tested_on": "Mus musculus", "experiment": "In vivo inhibition of NLRP3 dependent cytokine production in po dosed LPS-challenged C57BL/6 mouse model assessed as inhibition of LPS-induced IL-18 production in blood pretreated for 1 hr followed by induced with LPS measured after 5 hrs by cytokine bead assay", "type": "functional, organism-based", "conditions": "time 6.0 hrs"}, "Cytochrome P450 2C8": {"target": "T4, Cytochrome P450 2C8 (Homo sapiens, UniProt P10632)", "T4 sequence (P10632 whole entry)": "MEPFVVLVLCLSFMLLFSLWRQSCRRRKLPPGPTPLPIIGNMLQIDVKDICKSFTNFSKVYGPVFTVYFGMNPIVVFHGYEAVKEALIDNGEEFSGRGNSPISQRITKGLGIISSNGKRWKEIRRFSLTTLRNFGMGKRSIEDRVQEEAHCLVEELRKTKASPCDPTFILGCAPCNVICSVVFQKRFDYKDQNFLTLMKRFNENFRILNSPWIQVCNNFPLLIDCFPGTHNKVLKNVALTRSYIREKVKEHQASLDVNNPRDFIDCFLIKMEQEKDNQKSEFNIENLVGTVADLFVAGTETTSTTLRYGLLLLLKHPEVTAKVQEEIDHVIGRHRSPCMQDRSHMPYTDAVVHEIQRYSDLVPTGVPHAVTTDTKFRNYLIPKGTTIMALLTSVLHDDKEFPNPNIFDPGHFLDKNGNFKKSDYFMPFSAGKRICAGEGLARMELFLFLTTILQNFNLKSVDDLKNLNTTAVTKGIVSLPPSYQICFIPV", "experiment": "Inhibition of CYP2C8 (unknown origin)", "type": "ADME"}, "[20]": {"experiment": "Metabolic stability in Cynomolgus monkey hepatocytes assessed as intrinsic clearance measured per 10^6 cells", "type": "ADME, cell-based, Macaca fascicularis, Hepatocyte", "conditions": "read-out: CLH"}, "Cytochrome P450 1A2": {"target": "T5, Cytochrome P450 1A2 (Homo sapiens, UniProt P05177)", "T5 sequence (P05177 whole entry)": "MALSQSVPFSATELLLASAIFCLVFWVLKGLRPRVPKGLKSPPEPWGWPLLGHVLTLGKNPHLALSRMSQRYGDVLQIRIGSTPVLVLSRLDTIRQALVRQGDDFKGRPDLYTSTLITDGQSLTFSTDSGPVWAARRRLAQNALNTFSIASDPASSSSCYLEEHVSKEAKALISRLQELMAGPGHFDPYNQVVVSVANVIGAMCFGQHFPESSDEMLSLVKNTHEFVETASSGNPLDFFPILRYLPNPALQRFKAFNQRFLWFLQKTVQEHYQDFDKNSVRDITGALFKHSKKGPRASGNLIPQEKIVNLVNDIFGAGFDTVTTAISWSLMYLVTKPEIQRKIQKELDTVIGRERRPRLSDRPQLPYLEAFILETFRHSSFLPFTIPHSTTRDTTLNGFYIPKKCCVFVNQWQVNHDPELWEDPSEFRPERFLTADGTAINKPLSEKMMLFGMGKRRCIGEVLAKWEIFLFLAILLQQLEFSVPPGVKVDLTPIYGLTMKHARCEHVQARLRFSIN", "experiment": "Inhibition of CYP1A2 (unknown origin)", "type": "ADME"}, "Cytochrome P450 2C19 [21]": {"target": "T1, Cytochrome P450 2C19", "experiment": "Inhibition of CYP2C19 (unknown origin)", "type": "ADME"}},
  "note": "Activity calls are given as the source filed them. No cut-off for these calls is given here.",
  "data": [
    {"smiles": "CC(C)(O)c1ncc([S@](N)(=O)=NC(=O)Nc2c3c(cc4c2CCC4)CCC3)s1", "values": [
      {"measurement": "fraction unbound", "setting": "[1]", "result": 0.012},
      {"measurement": "IC50", "setting": "cells", "result": 0.0061, "unit": "µM"},
      {"measurement": "TDI", "setting": "Cytochrome P450 2C19 [2]", "result": "Not_active"},
      {"measurement": "AUC(0-inf)", "setting": "[3]", "result": 261, "unit": "µg·h/mL"},
      {"measurement": "hepatocyte CLint", "setting": "[4]", "result": "< 1.9", "unit": "µL/min/1e6 cells"},
      {"measurement": "AUC", "setting": "[5]", "result": 49.125, "unit": "µg·h/mL"},
      {"measurement": "solubility thermodynamic", "setting": "[6]", "result": 0.0091, "unit": "mg/mL"},
      {"measurement": "Vdss", "setting": "[7]", "result": 0.084, "unit": "L/kg"},
      {"measurement": "inhibition", "setting": "Mus musculus [8]", "result": "Dose-dependent-effect"},
      {"measurement": "IC50", "setting": "Cytochrome P450 2B6", "result": "> 60", "unit": "µM"},
      {"measurement": "TDI", "setting": "Cytochrome P450 2D6 [9]", "result": "Not_active"},
      {"measurement": "IC50", "setting": "Cytochrome P450 2C9", "result": "> 60", "unit": "µM"},
      {"measurement": "Activity", "setting": "Mus musculus [10]", "result": "Active"},
      {"measurement": "logD", "setting": "[11]", "result": 2.37},
      {"measurement": "bioavailability", "setting": "[12]", "result": 83, "unit": "%"},
      {"measurement": "fraction unbound", "setting": "[13]", "result": 0.009},
      {"measurement": "IC50", "setting": "Cytochrome P450 2D6 [14]", "result": "> 60", "unit": "µM"},
      {"measurement": "Activity", "setting": "[15]", "result": "Non-toxic"},
      {"measurement": "Activity", "setting": "Macrophage [16]", "result": "inactive"},
      {"measurement": "solubility thermodynamic", "setting": "[17]", "result": 0.021, "unit": "mg/mL"},
      {"measurement": "Activity", "setting": "Macrophage [18]", "result": "inactive"},
      {"measurement": "inhibition", "setting": "Mus musculus [19]", "result": "Dose-dependent-effect"},
      {"measurement": "IC50", "setting": "Cytochrome P450 2C8", "result": "> 60", "unit": "µM"},
      {"measurement": "hepatocyte CLint", "setting": "[20]", "result": 4.2, "unit": "µL/min/1e6 cells"},
      {"measurement": "IC50", "setting": "Cytochrome P450 1A2", "result": "> 60", "unit": "µM"},
      {"measurement": "IC50", "setting": "Cytochrome P450 2C19 [21]", "result": "> 60", "unit": "µM"}
    ]}
  ]
}
